Laboratory results: patent US20240269139A1, “COMPOUNDS FOR TARGETED PROTEIN DEGRADATION OF KINASES” (DANA-FARBER CANCER INSTITUTE, INC., priority 2020, published 2024)
Read-outs that look alike come from different tables or passages of the source.

Columns and labels:
Format in all cases: cell-based
[1] = target: protein kinases (human kinome) (Homo sapiens, UniProt P06239)
[2] = target: protein kinases (human kinome) (Homo sapiens, UniProt Q92918)
[3] = target: protein kinases (human kinome) (Homo sapiens, UniProt P54646); settings: for logFC: PRKAA2 (P54646)
protein kinases (human kinome) (Homo sapiens, UniProt P54646), sequence (P54646 whole entry): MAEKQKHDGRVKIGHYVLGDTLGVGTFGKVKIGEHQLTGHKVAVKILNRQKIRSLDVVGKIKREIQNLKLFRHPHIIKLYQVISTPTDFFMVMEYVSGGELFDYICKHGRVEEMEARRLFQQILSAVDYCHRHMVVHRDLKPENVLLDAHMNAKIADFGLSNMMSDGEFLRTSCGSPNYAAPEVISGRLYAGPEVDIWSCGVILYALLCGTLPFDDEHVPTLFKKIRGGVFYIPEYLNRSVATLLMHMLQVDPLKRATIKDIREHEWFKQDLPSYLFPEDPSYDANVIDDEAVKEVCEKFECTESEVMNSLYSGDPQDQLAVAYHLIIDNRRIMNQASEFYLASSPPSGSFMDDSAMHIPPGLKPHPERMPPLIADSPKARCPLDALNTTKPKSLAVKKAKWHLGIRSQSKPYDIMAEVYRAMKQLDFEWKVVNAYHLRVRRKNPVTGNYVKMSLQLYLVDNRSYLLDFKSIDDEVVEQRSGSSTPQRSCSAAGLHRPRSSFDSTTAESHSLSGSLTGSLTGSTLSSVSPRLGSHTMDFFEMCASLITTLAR

[4] = target: T1, protein kinases (human kinome) (Homo sapiens, UniProt Q9H8X2); settings: IPPK (Q9H8X2)
T1 sequence (Q9H8X2 1-491): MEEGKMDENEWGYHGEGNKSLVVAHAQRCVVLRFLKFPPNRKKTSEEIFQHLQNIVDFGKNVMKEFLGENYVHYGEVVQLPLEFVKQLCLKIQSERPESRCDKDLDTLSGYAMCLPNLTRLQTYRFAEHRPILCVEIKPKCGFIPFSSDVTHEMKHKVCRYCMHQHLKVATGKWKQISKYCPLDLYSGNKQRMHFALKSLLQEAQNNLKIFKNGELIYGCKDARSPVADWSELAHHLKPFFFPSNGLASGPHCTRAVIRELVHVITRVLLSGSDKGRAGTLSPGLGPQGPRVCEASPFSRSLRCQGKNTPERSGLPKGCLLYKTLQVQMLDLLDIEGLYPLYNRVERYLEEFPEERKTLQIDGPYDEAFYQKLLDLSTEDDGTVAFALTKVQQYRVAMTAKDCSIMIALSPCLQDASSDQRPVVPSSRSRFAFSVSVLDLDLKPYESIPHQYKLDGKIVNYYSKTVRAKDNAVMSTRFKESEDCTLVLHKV

[5] = target: protein kinases (human kinome) (Homo sapiens, UniProt P06241); settings: for logFC FYN: Accession P06241-1; for logFC: FYN (P06241-1), direction down
protein kinases (human kinome) (Homo sapiens, UniProt P06241), sequence (P06241 whole entry): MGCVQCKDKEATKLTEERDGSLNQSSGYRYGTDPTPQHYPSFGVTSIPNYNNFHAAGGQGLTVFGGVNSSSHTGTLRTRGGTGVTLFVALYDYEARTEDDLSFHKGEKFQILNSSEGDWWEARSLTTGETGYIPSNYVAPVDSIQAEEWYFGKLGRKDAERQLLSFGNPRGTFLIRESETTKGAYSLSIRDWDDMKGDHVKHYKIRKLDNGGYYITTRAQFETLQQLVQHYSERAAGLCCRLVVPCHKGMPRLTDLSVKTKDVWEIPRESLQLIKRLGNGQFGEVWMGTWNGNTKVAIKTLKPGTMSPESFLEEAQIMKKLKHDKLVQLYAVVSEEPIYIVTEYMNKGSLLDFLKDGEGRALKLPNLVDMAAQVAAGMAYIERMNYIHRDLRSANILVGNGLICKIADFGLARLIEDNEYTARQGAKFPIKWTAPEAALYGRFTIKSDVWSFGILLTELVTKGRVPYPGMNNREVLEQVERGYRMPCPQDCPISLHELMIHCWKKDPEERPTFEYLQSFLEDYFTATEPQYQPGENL

[6] = target: protein kinases (human kinome) (Homo sapiens, UniProt Q15418); settings: for logFC: RPS6KA1 (Q15418-1), direction down
protein kinases (human kinome) (Homo sapiens, UniProt Q15418), sequence (Q15418 whole entry): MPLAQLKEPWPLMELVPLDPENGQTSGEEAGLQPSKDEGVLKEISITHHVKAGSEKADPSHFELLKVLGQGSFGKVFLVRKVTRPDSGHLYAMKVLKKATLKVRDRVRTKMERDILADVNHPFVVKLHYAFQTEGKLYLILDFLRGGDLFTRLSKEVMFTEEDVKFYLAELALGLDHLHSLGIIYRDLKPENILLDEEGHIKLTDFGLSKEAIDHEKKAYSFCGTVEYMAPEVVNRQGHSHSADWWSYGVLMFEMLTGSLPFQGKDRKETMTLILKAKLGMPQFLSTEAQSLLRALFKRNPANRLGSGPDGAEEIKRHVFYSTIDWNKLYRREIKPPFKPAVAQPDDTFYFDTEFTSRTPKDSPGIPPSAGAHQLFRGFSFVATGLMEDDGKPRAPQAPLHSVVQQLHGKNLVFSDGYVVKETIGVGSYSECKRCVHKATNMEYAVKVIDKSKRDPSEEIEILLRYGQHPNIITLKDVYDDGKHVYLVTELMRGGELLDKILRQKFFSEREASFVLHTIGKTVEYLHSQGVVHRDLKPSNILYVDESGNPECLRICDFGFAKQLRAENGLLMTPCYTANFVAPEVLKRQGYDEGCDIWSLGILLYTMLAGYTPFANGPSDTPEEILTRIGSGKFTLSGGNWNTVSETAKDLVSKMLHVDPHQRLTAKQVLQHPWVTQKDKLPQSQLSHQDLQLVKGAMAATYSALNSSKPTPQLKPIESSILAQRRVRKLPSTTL

protein kinases (human kinome) (Homo sapiens, UniProt P06239), sequence (P06239 whole entry): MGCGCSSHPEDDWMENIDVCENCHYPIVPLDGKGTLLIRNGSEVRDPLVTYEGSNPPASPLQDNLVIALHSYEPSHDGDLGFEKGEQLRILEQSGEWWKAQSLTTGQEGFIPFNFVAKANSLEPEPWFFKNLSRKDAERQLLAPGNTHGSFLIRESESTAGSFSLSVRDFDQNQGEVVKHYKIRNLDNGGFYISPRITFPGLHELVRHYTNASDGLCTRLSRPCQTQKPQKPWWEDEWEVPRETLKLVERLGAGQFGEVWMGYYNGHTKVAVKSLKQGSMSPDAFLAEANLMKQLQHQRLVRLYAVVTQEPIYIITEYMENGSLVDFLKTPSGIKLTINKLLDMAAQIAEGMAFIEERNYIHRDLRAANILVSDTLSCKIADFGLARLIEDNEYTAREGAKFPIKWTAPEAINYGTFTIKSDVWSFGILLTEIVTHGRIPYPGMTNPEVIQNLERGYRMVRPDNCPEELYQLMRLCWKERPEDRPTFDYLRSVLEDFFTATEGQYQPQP
protein kinases (human kinome) (Homo sapiens, UniProt Q92918), sequence (Q92918 whole entry): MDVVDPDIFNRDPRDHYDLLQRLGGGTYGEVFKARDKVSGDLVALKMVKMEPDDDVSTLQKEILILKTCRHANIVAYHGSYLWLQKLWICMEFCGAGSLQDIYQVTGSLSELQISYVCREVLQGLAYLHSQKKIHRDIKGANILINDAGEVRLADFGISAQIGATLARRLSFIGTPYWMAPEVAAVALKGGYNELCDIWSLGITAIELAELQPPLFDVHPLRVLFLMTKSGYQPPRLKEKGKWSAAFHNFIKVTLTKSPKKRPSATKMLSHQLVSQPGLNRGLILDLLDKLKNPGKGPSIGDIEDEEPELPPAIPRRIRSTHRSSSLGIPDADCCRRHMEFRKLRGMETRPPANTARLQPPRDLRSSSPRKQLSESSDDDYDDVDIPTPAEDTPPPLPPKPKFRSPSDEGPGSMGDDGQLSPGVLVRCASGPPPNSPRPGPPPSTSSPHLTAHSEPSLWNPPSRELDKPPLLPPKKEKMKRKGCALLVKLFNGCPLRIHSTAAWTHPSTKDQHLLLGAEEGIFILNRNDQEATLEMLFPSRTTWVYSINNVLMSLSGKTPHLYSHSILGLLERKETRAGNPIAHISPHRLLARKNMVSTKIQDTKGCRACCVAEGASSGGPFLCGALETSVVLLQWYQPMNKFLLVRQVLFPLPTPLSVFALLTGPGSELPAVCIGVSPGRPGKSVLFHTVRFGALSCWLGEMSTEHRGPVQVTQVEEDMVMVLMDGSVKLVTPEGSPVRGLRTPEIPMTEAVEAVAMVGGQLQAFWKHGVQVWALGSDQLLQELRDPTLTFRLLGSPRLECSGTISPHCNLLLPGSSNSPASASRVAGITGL

CC(C)S(=O)(=O)c1ccccc1Nc1nc(Nc2ccc(N3CCN(CCOCCNC(=O)CNc4cccc5c4C(=O)N(C4CCC(=O)NC4=O)C5=O)CC3)cc2)ncc1Cl (stereo not drawn) [SK.3.91]
logFC LCK ([1]; LCK P06239-1, experiment wp160, 2 hr): −0.4627
logFC LCK ([1]; LCK P06239-1, experiment wp160, 4 hr): −1.173
logFC LCK ([1]; LCK, accession P06239-1, experiment wp160, 2 hr, direction of change down): −0.4627
logFC LCK ([1]; LCK, accession P06239-1, experiment wp160, 4 hr, direction of change down): −1.173
logFC MAP4K1 (Q92918) ([2]; experiment wp016, 1 uM): −0.6677
logFC MAP4K1 (Q92918) ([2]; experiment wp103): −0.5099
logFC MAP4K1 (Q92918) ([2]; experiment wp107): −0.7036
logFC MAP4K1 (Q92918) ([2]; experiment wp133, 4 hr): −0.5528
logFC MAP4K1 (Q92918) ([2]; experiment wp160, 4 hr): −0.4817
logFC of PRKAA2 (P54646) ([3]; Experiment wp172): −0.926
logFC ([3]; experiment wp105): −0.9029
logFC ([3]; experiment wp172): −0.926
logFC of PRKAA2 (P54646) ([3]; experiment wp105): −0.9029
logFC ([4]; experiment wp103): −0.4729
logFC ([4]; experiment wp107): −1.001
logFC ([4]; experiment wp114): −0.7881
logFC ([4]; experiment wp133, 4 hr): −0.4816
logFC FYN ([5]; experiment wp105): −0.3586
logFC FYN ([5]; experiment wp107): −0.4288
logFC ([5]; experiment wp105): −0.3586
logFC ([5]; experiment wp107): −0.4288
logFC RPS6KA1 (Q15418-1) ([6]; Experiment wp172): −0.4561
logFC ([6]; experiment wp107): −0.3671
logFC ([6]; experiment wp160, 4 hr): −0.363
logFC ([6]; experiment wp172): −0.4561
logFC RPS6KA1 (Q15418-1) ([6]; experiment wp107): −0.3671
logFC RPS6KA1 (Q15418-1) ([6]; experiment wp160, 4 hr): −0.363
